Data reported in article PMC6123711, “Conformational signatures in β-arrestin2 reveal natural biased agonism at a G-protein-coupled receptor” (Communications Biology, 2018).

Legend:
[1] = system: Galr2–β-arrestin2–clathrin complex; assay: β-arrestin2–clathrin interactions (NanoBit); type: cell-based, human; details: 30 μM cmpd101 (GRK2/3 inhibitor) pretreatment; 10 μM agonist
Excerpt: The interaction between β-arrestin2 and clathrin induced by the activation of Galr2 was examined using the NanoBit technology. We measured real-time association of the protein complex Galr2–β-arrestin2–clathrin. We constructed β-arrestin2 and clathrin subunit A tagged with LgBit or SmBit at the C or N termini and screened eight different plasmid combinations, out of which only one combination (β-arrestin2–LgBit:SmBit–clathrin) responded to ligand stimulation (Fig. 3, Supplementary Fig. 3). Before ligand stimulation, Galr2, β-arrestin2, and clathrin were not in close proximity and so the basal luminescence was very low. […] A time course experiment was initially performed to determine the time at which the maximal increase in luminescence occurred following agonist stimulation. All ligands except for Fmoc-dA4-dQ14 induced different fold increase in luminescence immediately after ligand treatment (Fig. 3b). […] Galanin- and Spexin-induced increases in luminescence were attenuated by pretreatment of cmpd101, a G-protein-coupled receptor kinase 2/3 (GRK2/3) inhibitor, indicating contribution of GRK2/3 in the formation of Galr2–β-arrestin2–clathrin complex (Fig. 3).
The arrows indicate the time when the cells were treated with different ligands. […] The results are expressed as mean ± s.e.m. of three experiments performed in triplicate. Each triplicate was averaged before calculating the s.e.m.
(§1) Quantification of bias between each pathway was performed using Galanin as a reference ligand. All incubations for the different signaling assays were performed in serum-free medium to prevent peptide degradation.
One day before transfection, cells were seeded in 96-well plates at a density of 2.5 × 10^4 cells per well. A mixture containing 35 ng β-arrestin construct containing the LgBit or SmBit, 35 ng clathrin subunit A containing one of the two domains of Nluc and 30 ng untagged receptor, and 0.2 μl Lipofectamine 2000 (Invitrogen) was prepared and added to each well. We followed the assay manufacturer’s instructions and tested eight β-arrestin-clathrin plasmid combinations. In only one plasmid combination we were able to observe luminescent signal and it was chosen for further experiments. At 24 h post transfection, medium was aspirated and replaced with 100 μl OPTIMEM at room temperature. After a 10-min incubation, 25 μl substrate (furimazine) was added and the luminescence was monitored once every minute for 10 min. Then, 10 μl ligand was added to each well and the luminescence values were recorded immediately and once every minute for 1 h (Synergy 2 Multi-Mode Microplate Reader BioTek).

Galr2 = Galr2 internalization assay based on HiBiT technology; type: cell-based, human; details: 30 μM Cmpd101 30 min; 25 μM PitStop 2 (clathrin) 15 min; 80 μM Dynasore (dynamin) 40 min; Galanin 30 min
Protocol: The HiBiT protein tagging system, like NanoBiT technology, consists of two subunits: the large fragment (LgBiT) with 156 amino acids and the small fragment of Nluc (SmBiT-High-affinity) with only 11 amino acids that has a very high affinity to LgBit. To quantify Galr2 at the cell surface, cells expressing Galr2 tagged with the SmBiT-High-affinity were treated with cell-impermeable LgBiT along with the Nluc substrate furimazine. SmBiT-High-affinity-Galr2 on the cell surface binds to LgBiT which produces a luminescent signal, while SmBiT-High-affinity-Galr2 inside the cells cannot bind to LgBiT (Fig. 4a).
Fig. 4 Internalization of Galr2. a Schematic representation of the internalization assay. […] Before ligand stimulation, cells were pretreated with 30 μM Cmpd101 (a GRK2/3 inhibitor) for 30 min, 25 μM PitStop 2 (a Clathrin inhibitor) for 15 min, and 80 μM Dynasore (a Dynamin inhibitor) for 40 min. […] Remaining cell surface receptors were determined by measuring the luminescent signal produced by the binding between LgBiT and the Galr2-SmBiT-High affinity. Each data point represents mean ± s. e. m. of two independent experiments performed in triplicate
as §1
Internalization assays were performed using the Nano-Glo HiBiT extracellular detection system acquired from Promega Corporation (Cat. No. N2421). The day before transfection, HEK293 cells were seeded in 96-well plates at a density of 2.5 × 10^4 cells per well. The following day, cells were transfected with a mixture prepared containing 0.5 ng of SmBiT-high-affinity-Galr2 construct and 0.2 μl Lipofectamine 2000 (Invitrogen) added to each well. […] Then luminescence values were recorded immediately (Synergy 2 Multi-Mode Microplate Reader BioTek). […]

[2] = system: luteinizing hormone (LH) secretion; details: cited from earlier work
Excerpt: G-protein-coupled receptors (GPCRs) are the largest family of cell surface receptors that communicate extracellular stimuli to the cell interior[1]. Biased ligands are of particular interest because they offer the possibility to design a novel class of therapeutic agents. In some GPCRs, biased ligands that preferentially activate G-protein-dependent signaling have therapeutic potential. […] Most descriptions of biased ag ...

Molecule	effect of pretreatment on Galanin- and Spexin-induced β-arrestin2–clathrin luminescence increase [1]	effect of inhibitor on Galanin-induced Galr2 internalization (Galr2)	LH secretion, rat [2]
Cn1c(CNc2cccc(C(=O)NCc3ccccc3C(F)(F)F)c2)nnc1-c1ccncc1 [cmpd101, reference compound]	attenuated	partially blocked	–
galanin-like peptide: galanin-like peptide, a Galanin paralog (APAHRGRGGWTLNSAGYLLGPVLHLPQMGDQDGKRETALEILDLWKAIDGLPYSHPPQPS; Galanin-like peptide; UniProt Q9UBC7 25-84, looked up)	–	–	stimulates luteinizing hormone (LH) secretion
